Laboratory results: US8263538B2, “Personal wash cleanser with mild surfactant systems comprising defined alkanoyl compounds and defined fatty acyl isethionate surfactant product” (priority 2010, dated 2012)

System: intrascapular area of the back
Assay: 14-day cumulative irritation Patch Test (occlusive patch, cleansers diluted to 25% w/w)
Conditions: for Patch test Total irritation score: higher score = more irritating
Procedure: This was randomized, double-blind study. A sufficient number of subjects were recruited to ensure that 25 subjects completed the study. The 14-day cumulative irritation test was conducted as follows. Patching occurred for 14 consecutive days, except on Sundays. Patches applied on Saturday were left in place until Monday, when freshly prepared patches were applied. The designated patch test sites were approximately 2 cm×2 cm on the intrascapular area of the back. Approximately 0.2 mL of the test product was placed onto a Parke-Davis Readi-Bandage® occlusive patch that measured 2 cm×2 cm. Solutions were made by diluting the cleansers to 25% w/w in distilled water. The patch was then applied to the designated test site. The patches were secured with hypoallergenic tape (Scanpor {Allerderm} as needed). A 0.5% sodium dodecyl sulfate (SDS) solution was used as the control in the test.
Each day following application, the patches were removed, the sites evaluated and identical patches reapplied to the same test sites. All evaluations were made using the following 6-point scoring system: • 0=No evidence of any effect • +=Barely perceptible (minimal, faint, uniform or spotty erythema) numerically equivalent to 0.5 • 1=Mild (pink, uniform erythema covering most of the contact site) • 2=Moderate (pink-red, erythema uniform in the entire contact site) • 3=Marked (bright red erythema with/without petechiae or papules) • 4=Severe (deep red erythema with/without vesiculation or weeping)
If a dermal reaction of 3 or 4 occur with any of the test articles at any point during the study, further patch testing on that subject was terminated at the test site involved, and the attained score was assigned to that site for the subsequent scheduled test days.
Cumulative irritation scores, which were the sum of the numerical irritation grades assigned daily during the 14-day test period, were calculated at the end of the study to compare mildness of the test products. […] The data were statistically analyzed using Tukey-Kramer Comparison, and statistical significance was determined at the 95% confidence level.

[1] = first series of Table 1 (0.5% SDS control = 783)
[2] = second series of Table 1 (0.5% SDS control = 912)

## CCCCCCCCCCCCOS(=O)(=O)[O-].[Na+] [0.5% SDS Solution, sodium dodecyl sulfate]
[1]
  Total irritation score compared to 0.5% SDS solution: 100%
  Patch test Total irritation score: 783
[2]
  Total irritation score compared to 0.5% SDS solution: 100%
  Patch test Total irritation score: 912
